Laboratory results reported in patent US12606528B2, “Methods and materials for inhibiting NF-kB activity” (University of Pittsburgh - Of the Commonwealth System of …, priority 2019, dated 2026).
Where two headings read alike, the source gives them in different places.

Assays:
NF-κB = NF-κB assay: THP1-NF-κB-LUC cells, LPS-stimulated secreted luciferase; type: cell-based; conditions: THP1-NF-κB-LUC cells, read-out: IC50 (NF-κB assay)
Method in brief: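 THP1-NF-κB-LUC cells (25k/well) were pretreated with compounds for 2 h, then stimulated with LPS (10 ng/mL) for 18 h. Secreted luciferase was measured and normalized to vehicle, and IC50 was fitted from the concentration series.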

TNF release = assay: TNF assay: TNF release from LPS-stimulated human PBMCs (TNF ELISA); type: cell-based; conditions: PBMC, read-out: IC50 (TNF assay)
Method in brief: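 Human PBMCs at 10k/well pretreated with compound dilutions 2 h, then stimulated with LPS (10 ng/mL) for 18 h. TNF in supernatants quantified by ELISA; IC50 for inhibition of TNF release fitted from concentration–response.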

[1] = LPS-stimulated human PBMCs, TNF ELISA
[2] = compounds 2 hours before LPS (10 ng/mL) for 18 hours, secreted luciferase
[3] = human PBMCs, compounds 2 hours before LPS (10 ng/ml) for 18 hours, supernatant TNF ELISA

IC50 (NF-κB; LPS-stimulated)	IC50 (TNF release; [1])	IC50 (NF-κB; [2])	IC50 (TNF release; [3])	SMILES
1000 to 10000 nM	< 0.1 µM			C[S+]([O-])c1sc(-c2ccc3ccccc3c2)nc1S(=O)(=O)c1ccc(Cl)cc1 (stereo not drawn) [BC19671]
1000 to 10000 nM	0.1 to 1 µM			CS(=O)(=O)c1sc(-c2ccc3ccccc3c2)nc1S(=O)(=O)c1ccc(Cl)cc1 [BC19672]
1000 to 10000 nM	> 10 µM			CCC[S+]([O-])c1sc(-c2ccc3ccccc3c2)nc1S(=O)(=O)c1ccc(Cl)cc1 (stereo not drawn) [BC19673]
1000 to 10000 nM	> 10 µM			CCCS(=O)(=O)c1sc(-c2ccc3ccccc3c2)nc1S(=O)(=O)c1ccc(Cl)cc1 [BC19674]
1000 to 10000 nM	1 to 10 µM			CC(C)C[S+]([O-])c1sc(-c2ccc3ccccc3c2)nc1S(=O)(=O)c1ccc(Cl)cc1 (stereo not drawn) [BC19675]
1000 to 10000 nM	> 10 µM			O=S(=O)(CC1CC1)c1sc(-c2ccc3ccccc3c2)nc1S(=O)(=O)c1ccc(Cl)cc1 [BC19676]
1000 to 10000 nM	1 to 10 µM			COCC[S+]([O-])c1sc(-c2ccc3ccccc3c2)nc1S(=O)(=O)c1ccc(Cl)cc1 (stereo not drawn) [BC19677]
1000 to 10000 nM	1 to 10 µM			COCCS(=O)(=O)c1sc(-c2ccc3ccccc3c2)nc1S(=O)(=O)c1ccc(Cl)cc1 [BC19678]
1000 to 10000 nM	0.1 to 1 µM			COCC[S+]([O-])c1sc(-c2cccnc2)nc1S(=O)(=O)c1ccc(Cl)cc1 (stereo not drawn) [BC19679]
> 10000 nM	> 10 µM			CCCSc1snc(-c2ccc(F)cc2)c1S(=O)(=O)c1ccc(Cl)cc1 [BC19680]
100 to 1000 nM	< 0.1 µM			CCC[S+]([O-])c1snc(-c2ccc(F)cc2)c1S(=O)(=O)c1ccc(Cl)cc1 (stereo not drawn) [BC19681]
100 to 1000 nM	< 0.1 µM			CCCS(=O)(=O)c1snc(-c2ccc(F)cc2)c1S(=O)(=O)c1ccc(Cl)cc1 [BC19682]
< 100 nM	1 to 10 µM			O=C1CCOc2c(cc(Br)cc2S(=O)(=O)Nc2ccc(Cl)cc2)N1 [BC19685]
< 100 nM	> 10 µM			CCc1ccc(NS(=O)(=O)c2cc(Br)cc3c2OCCC(=O)N3)cc1 [BC19686]
< 100 nM	> 10 µM			CC(C)c1ccc(NS(=O)(=O)c2cc(Br)cc3c2OCCC(=O)N3)cc1 [BC19687]
> 10000 nM	> 10 µM			COc1ccc(NS(=O)(=O)c2cc(Br)cc3c2OCCC(=O)N3)cc1Cl [BC19688]
> 10000 nM	1 to 10 µM			O=C1CCOc2cc(S(=O)(=O)Nc3ccccc3)c(Br)cc2N1 [BC19689]
> 10000 nM	> 10 µM			CCc1ccc(NS(=O)(=O)c2cc3c(cc2Br)NC(=O)CCO3)cc1 [BC19690]
> 10000 nM	> 10 µM			COc1ccc(NS(=O)(=O)c2cc3c(cc2Br)NC(=O)CCO3)cc1 [BC19692]
> 10000 nM	> 10 µM			O=C1CCOc2cc(S(=O)(=O)Nc3ccc(F)cc3F)c(Br)cc2N1 [BC19693]
> 10000 nM	> 10 µM			COc1ccc(NS(=O)(=O)c2cc3c(cc2Br)NC(=O)CCO3)cc1Cl [BC19694]
> 10000 nM	1 to 10 µM			N#Cc1ccc(NS(=O)(=O)c2cc3c(cc2Br)NC(=O)CCO3)cc1 [BC19695]
		100 to 1000 nM	> 10 µM	CC1Oc2cc(S(=O)(=O)Nc3ccc(Cl)cc3)c(Cl)cc2NC1=O (stereo not drawn) [BC19696]

IC50 (NF-κB; LPS-stimulated)	IC50 (TNF release; [1])	IC50 (NF-κB; [2])	IC50 (TNF release; [3])	SMILES
		< 100 nM	> 10 µM	CC1Oc2c(cc(Cl)cc2S(=O)(=O)Nc2ccc(Cl)cc2)NC1=O (stereo not drawn) [BC19697]
		< 100 nM	> 10 µM	CC1Oc2cc(S(=O)(=O)Nc3ccc(F)c(F)c3)c(Cl)cc2NC1=O (stereo not drawn) [BC19698]
		< 100 nM	> 10 µM	CC1Oc2c(cc(Cl)cc2S(=O)(=O)Nc2ccc(F)c(F)c2)NC1=O (stereo not drawn) [BC19699]
		< 100 nM	> 10 µM	Cc1ccc(NS(=O)(=O)c2cc3c(cc2Cl)NC(=O)C(C)O3)cc1F (stereo not drawn) [BC19700]
		< 100 nM	> 10 µM	Cc1ccc(NS(=O)(=O)c2cc(Cl)cc3c2OC(C)C(=O)N3)cc1F (stereo not drawn) [BC19701]
		< 100 nM	> 10 µM	CCc1ccc(NS(=O)(=O)c2cc3c(cc2Cl)NC(=O)C(C)O3)cc1 (stereo not drawn) [BC19702]
		< 100 nM	> 10 µM	CCc1ccc(NS(=O)(=O)c2cc(Cl)cc3c2OC(C)C(=O)N3)cc1 (stereo not drawn) [BC19703]
		< 100 nM	> 10 µM	CC1Oc2c(cc(Cl)cc2S(=O)(=O)Nc2ccc(C(C)C)cc2)NC1=O (stereo not drawn) [BC19705]
		< 100 nM	> 10 µM	COc1ccc(NS(=O)(=O)c2cc3c(cc2Cl)NC(=O)C(C)O3)cc1 (stereo not drawn) [BC19706]
		< 100 nM	> 10 µM	COc1ccc(NS(=O)(=O)c2cc(Cl)cc3c2OC(C)C(=O)N3)cc1 (stereo not drawn) [BC19707]
		< 100 nM	> 10 µM	Cc1ccc(NS(=O)(=O)c2cc3c(cc2Cl)NC(=O)C(C)O3)cc1Cl (stereo not drawn) [BC19708]
		< 100 nM	> 10 µM	CC1Oc2cc(S(=O)(=O)Nc3ccc(F)cc3F)c(Cl)cc2NC1=O (stereo not drawn) [BC19709]
		< 100 nM	> 10 µM	CC1Oc2c(cc(Cl)cc2S(=O)(=O)Nc2ccc(F)cc2F)NC1=O (stereo not drawn) [BC19710]
		< 100 nM	> 10 µM	CCc1cccc(NS(=O)(=O)c2cc3c(cc2Cl)NC(=O)C(C)O3)c1 (stereo not drawn) [BC19711]
		< 100 nM	> 10 µM	CCc1cccc(NS(=O)(=O)c2cc(Cl)cc3c2OC(C)C(=O)N3)c1 (stereo not drawn) [BC19712]
		100 to 1000 nM	1 to 10 µM	CC1Oc2cc(S(=O)(=O)Nc3cccc(F)c3)c(Cl)cc2NC1=O (stereo not drawn) [BC19713]
		< 100 nM	1 to 10 µM	CC1Oc2c(cc(Cl)cc2S(=O)(=O)Nc2cccc(F)c2)NC1=O (stereo not drawn) [BC19714]
		< 100 nM	1 to 10 µM	CC1Oc2cc(S(=O)(=O)Nc3cccc(Cl)c3)c(Cl)cc2NC1=O (stereo not drawn) [BC19715]
		< 100 nM	1 to 10 µM	CC1Oc2c(cc(Cl)cc2S(=O)(=O)Nc2cccc(Cl)c2)NC1=O (stereo not drawn) [BC19716]
		< 100 nM	> 10 µM	Cc1ccc(NS(=O)(=O)c2cc3c(cc2Cl)NC(=O)C(C)O3)cc1 (stereo not drawn) [BC19717]
		< 100 nM	1 to 10 µM	Cc1ccc(NS(=O)(=O)c2cc(Cl)cc3c2OC(C)C(=O)N3)cc1 (stereo not drawn) [BC19718]
		100 to 1000 nM	> 10 µM	CC1Oc2cc(S(=O)(=O)Nc3ccc(F)cc3Cl)c(Cl)cc2NC1=O (stereo not drawn) [BC19719]
		< 100 nM	> 10 µM	CC1Oc2c(cc(Cl)cc2S(=O)(=O)Nc2ccc(F)cc2Cl)NC1=O (stereo not drawn) [BC19720]

IC50 (NF-κB; LPS-stimulated)	IC50 (TNF release; [1])	IC50 (NF-κB; [2])	IC50 (TNF release; [3])	SMILES
		< 100 nM	1 to 10 µM	CC1Oc2cc(S(=O)(=O)Nc3ccc(F)cc3)c(Cl)cc2NC1=O (stereo not drawn) [BC19721]
		< 100 nM	1 to 10 µM	CC1Oc2c(cc(Cl)cc2S(=O)(=O)Nc2ccc(F)cc2)NC1=O (stereo not drawn) [BC19722]
100 to 1000 nM	> 10 µM			CN1CCN(C(=O)C2Cc3nc(-c4ccc(F)cc4)c(-c4ccc(F)cc4)nc3C2)CC1 [BC19723]
1000 to 10000 nM	1 to 10 µM			CCC[S+]([O-])c1sc(-c2cccnc2)nc1S(=O)(=O)c1ccc(Cl)cc1 (stereo not drawn) [BC19724]
> 10000 nM	> 10 µM			CC(C)[S+]([O-])c1sc(-c2cccnc2)nc1S(=O)(=O)c1ccc(Cl)cc1 (stereo not drawn) [BC19725]
> 10000 nM	> 10 µM			CC(C)Sc1snc(-c2ccc(F)cc2)c1S(=O)(=O)c1ccc(Cl)cc1 [BC19726]
1000 to 10000 nM	1 to 10 µM			CC(C)[S+]([O-])c1snc(-c2ccc(F)cc2)c1S(=O)(=O)c1ccc(Cl)cc1 (stereo not drawn) [BC19727]
> 10000 nM	1 to 10 µM			CC(C)S(=O)(=O)c1snc(-c2ccc(F)cc2)c1S(=O)(=O)c1ccc(Cl)cc1 [BC19728]
		100 to 1000 nM	> 10 µM	CC1Oc2cc(S(=O)(=O)Nc3ccc(C#N)cc3)c(Cl)cc2NC1=O (stereo not drawn) [BC19729]
		< 100 nM	> 10 µM	CC1Oc2c(cc(Cl)cc2S(=O)(=O)Nc2ccc(C#N)cc2)NC1=O (stereo not drawn) [BC19730]
		100 to 1000 nM	> 10 µM	CCC1Oc2cc(S(=O)(=O)Nc3ccc(F)cc3)c(Cl)cc2NC1=O (stereo not drawn) [BC19731]
		< 100 nM	1 to 10 µM	CCC1Oc2c(cc(Cl)cc2S(=O)(=O)Nc2ccc(F)cc2)NC1=O (stereo not drawn) [BC19732]
		< 100 nM	> 10 µM	CCC1Oc2cc(S(=O)(=O)Nc3ccc(OC(F)(F)F)cc3)c(Cl)cc2NC1=O (stereo not drawn) [BC19733]
		< 100 nM	> 10 µM	CCC1Oc2c(cc(Cl)cc2S(=O)(=O)Nc2ccc(OC(F)(F)F)cc2)NC1=O (stereo not drawn) [BC19734]
		< 100 nM	> 10 µM	CCC1Oc2cc(S(=O)(=O)Nc3ccc(F)c(F)c3)c(Cl)cc2NC1=O (stereo not drawn) [BC19735]
		< 100 nM	> 10 µM	CCC1Oc2c(cc(Cl)cc2S(=O)(=O)Nc2ccc(F)c(F)c2)NC1=O (stereo not drawn) [BC19736]
		100 to 1000 nM	> 10 µM	CCC1Oc2cc(S(=O)(=O)Nc3ccccc3)c(Cl)cc2NC1=O (stereo not drawn) [BC19737]
		< 100 nM	> 10 µM	CCC1Oc2c(cc(Cl)cc2S(=O)(=O)Nc2ccccc2)NC1=O (stereo not drawn) [BC19738]
		< 100 nM	> 10 µM	CCC1Oc2cc(S(=O)(=O)Nc3ccc(Cl)cc3)c(Cl)cc2NC1=O (stereo not drawn) [BC19739]
		< 100 nM	> 10 µM	CCC1Oc2c(cc(Cl)cc2S(=O)(=O)Nc2ccc(Cl)cc2)NC1=O (stereo not drawn) [BC19740]
		< 100 nM	> 10 µM	CCc1ccc(NS(=O)(=O)c2cc3c(cc2Cl)NC(=O)C(CC)O3)cc1 (stereo not drawn) [BC19741]
		< 100 nM	1 to 10 µM	CCc1ccc(NS(=O)(=O)c2cc(Cl)cc3c2OC(CC)C(=O)N3)cc1 (stereo not drawn) [BC19742]
		< 100 nM	1 to 10 µM	CCC1Oc2c(cc(Cl)cc2S(=O)(=O)Nc2ccc(OC)c(Cl)c2)NC1=O (stereo not drawn) [BC19744]
